“And” between values parts separate entries of the source, which are not always exact repeats. Identical values can stand only once.
Columns and labels:
MCF-7 = test: MTT assay, anti-proliferative effect on MCF-7 cells; assay type: cell-based, human; conditions: Homo sapiens, MCF7, 72 h, read-out: IC50 MCF-7
Method: (§1) A549, OVCAR-3, HCT-116, and MCF-7 were purchased from American type culture collection (ATCC, USA). […] And all cell lines used in the experiment were tested for mycoplasma contamination every two weeks.
(§2) A549, OVCAR-3, HCT-116, and MCF-7 cells were seeded in 96-well plates, and then treated with target compounds for 72 h. Then, 20 µL MTT (5 mg/mL, in PBS) was added into each well, and dissolved in 150 µL DMSO after incubation for 4 h. Finally, the absorbance was measured with microplate reader (490 nm).

A549 = test: MTT assay, anti-proliferative effect on A549 cells; assay type: cell-based, human; conditions: Homo sapiens, A549, 72 h, read-out: IC50 A549
Method: as §1, §2

OVCAR-3 = test: MTT assay, anti-proliferative effect on OVCAR-3 cells; assay type: cell-based, human; conditions: Homo sapiens, OVCAR-3, 72 h, read-out: IC50 OVCAR-3
Method: as §1, §2

HCT-116 = test: MTT assay, anti-proliferative effect on HCT-116 cells; assay type: cell-based, human; conditions: Homo sapiens, HCT-116, 72 h, read-out: IC50 HCT-116
Method: as §1, §2

PARP-2 = molecular target: T1, PARP-2 (Homo sapiens, UniProt Q9UGN5); test: PARP-2 enzyme inhibition, colorimetric 96-well PARP assay kit; assay type: biochemical; conditions: in vitro enzyme, Mean ± SD
T1 construct: purchased BPS Bioscience, USA 80,581
T1 sequence (Q9UGN5 whole entry): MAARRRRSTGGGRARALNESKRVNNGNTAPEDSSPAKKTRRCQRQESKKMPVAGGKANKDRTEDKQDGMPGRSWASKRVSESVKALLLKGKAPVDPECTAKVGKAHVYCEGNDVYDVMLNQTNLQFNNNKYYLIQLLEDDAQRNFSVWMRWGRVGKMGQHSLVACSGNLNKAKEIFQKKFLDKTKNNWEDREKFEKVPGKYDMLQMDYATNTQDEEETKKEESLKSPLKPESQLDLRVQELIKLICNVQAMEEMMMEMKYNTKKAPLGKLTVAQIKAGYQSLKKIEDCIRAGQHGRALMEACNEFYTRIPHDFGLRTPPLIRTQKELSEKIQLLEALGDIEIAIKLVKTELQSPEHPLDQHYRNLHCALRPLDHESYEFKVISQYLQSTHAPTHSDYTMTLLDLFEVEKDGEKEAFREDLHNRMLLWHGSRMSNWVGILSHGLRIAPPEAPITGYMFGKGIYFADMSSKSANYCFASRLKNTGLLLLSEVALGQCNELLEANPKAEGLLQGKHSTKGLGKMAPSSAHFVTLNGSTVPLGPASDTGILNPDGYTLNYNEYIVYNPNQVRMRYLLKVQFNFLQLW
Method: (§4) The PARP-1 and PARP-2 inhibition assays were performed by the colorimetric 96-well PARP assay kits provided by BPS Bioscience, USA.

PARP-1 = molecular target: T2, PARP-1 (Homo sapiens, UniProt P09874); test: PARP-1 enzyme inhibition, colorimetric 96-well PARP assay kit; assay type: biochemical; conditions: in vitro enzyme, Mean ± SD
T2 construct: purchased BPS Bioscience, USA 80,580
T2 sequence (P09874 whole entry): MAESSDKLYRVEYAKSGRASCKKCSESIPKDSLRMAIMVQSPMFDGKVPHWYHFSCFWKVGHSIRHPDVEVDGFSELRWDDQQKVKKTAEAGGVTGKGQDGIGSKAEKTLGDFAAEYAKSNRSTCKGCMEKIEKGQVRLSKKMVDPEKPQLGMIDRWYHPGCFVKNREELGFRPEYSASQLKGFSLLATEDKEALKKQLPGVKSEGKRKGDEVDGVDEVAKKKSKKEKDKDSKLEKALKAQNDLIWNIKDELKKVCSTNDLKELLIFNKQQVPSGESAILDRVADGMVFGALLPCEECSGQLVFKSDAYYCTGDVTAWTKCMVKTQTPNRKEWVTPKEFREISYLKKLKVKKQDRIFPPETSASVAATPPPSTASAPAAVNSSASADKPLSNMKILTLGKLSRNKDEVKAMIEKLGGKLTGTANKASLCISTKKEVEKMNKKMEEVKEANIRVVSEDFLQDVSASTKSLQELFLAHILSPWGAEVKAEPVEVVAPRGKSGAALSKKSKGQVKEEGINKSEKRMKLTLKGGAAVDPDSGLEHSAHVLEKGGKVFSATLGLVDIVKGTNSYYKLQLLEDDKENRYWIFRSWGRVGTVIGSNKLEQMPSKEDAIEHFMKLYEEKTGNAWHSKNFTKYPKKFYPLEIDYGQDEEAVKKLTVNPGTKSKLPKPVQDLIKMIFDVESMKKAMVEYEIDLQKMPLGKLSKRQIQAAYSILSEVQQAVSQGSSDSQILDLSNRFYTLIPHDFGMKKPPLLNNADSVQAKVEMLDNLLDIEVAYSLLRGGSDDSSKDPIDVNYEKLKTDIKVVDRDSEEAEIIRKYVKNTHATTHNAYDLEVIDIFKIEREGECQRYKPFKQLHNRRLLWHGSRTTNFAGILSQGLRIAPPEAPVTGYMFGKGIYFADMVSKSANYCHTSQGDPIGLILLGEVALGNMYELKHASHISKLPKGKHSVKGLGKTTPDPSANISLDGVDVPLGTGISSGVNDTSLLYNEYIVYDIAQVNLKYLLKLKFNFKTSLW
Method: as §4

HTB-125 = test: Selectivity index (SI) versus HTB-125 normal cells; assay type: cell-based; conditions: SI = CC50/IC50; Human normal breast cell; means ± SD
IOSE80 = test: Selectivity index (SI) versus IOSE80 normal cells; assay type: cell-based; conditions: SI = CC50/IC50; Human normal ovarian epithelial cells; means ± SD
HIEC = test: Selectivity index (SI) versus HIEC normal cells; assay type: cell-based; conditions: SI = CC50/IC50; Human normal intestinal epithelial cells; means ± SD
A549 cells = test: Annexin-V/PI apoptosis assay by flow cytometry; assay type: cell-based, human; conditions: 48 h, P < 0.001
Method: PARP-1 inhibitors have been reported to induce further apoptosis of cancer cells, which was also confirmed by our previous studies. An annexin-V/PI binding assay was conducted in A549 cells to evaluate the capacity of compound 11b to induce apoptosis in cancer cells. […] (Fig. 4).
A549 cells were cultured in 6-well plates (3.0 × 10^5/well), and treated with DMSO (1%) or compound 11b for 48 h. The cells were then collected, washed with PBS, and stained with FITC-Annexin-V and PI (Promega Corporation, USA). Finally, the apoptosis of A549 cells was detected by flow cytometry (Becton Dickinson and Company, USA; FACS Calibur).

HPAEpiC = test: Selectivity index (SI) versus HPAEpiC normal cells; assay type: cell-based; conditions: SI = CC50/IC50; Human normal alveolar epithelial cells; means ± SD
[1] = test system: Cleaved-Caspase 3 and Caspase 3; test: Western blot of Caspase 3 and Cleaved-Caspase 3 in A549 cells; assay type: cell-based, human
Method: Meanwhile, we also detected the expression of Cleaved-Caspase 3 and Caspase 3 after different treatment concentrations to explore the mechanism of compound 11b inducing cell apoptosis.
(§3) The cells were plated in 6-well plates and incubated with different concentrations of compound 11b for a specified time. The cells were then collected, and tested using a standard western blot as described before.

PAR = test: Western blot of PAR in A549 cells; assay type: cell-based, human; conditions: best effect at 4.0 µM, P < 0.001
Method: PARylation is a critical post-translational modification in which ADP-ribose units are added to a wide array of target proteins by PARP-1 [33–35]. PAR is the active product of PARP-1, and the biosynthesis of PAR will be reduced while PARP-1 is inhibited. Here, we used the western blot to evaluate PAR levels and PARP-1 expression.
as §3

Structure (SMILES)	IC50 (MCF-7) [µM]	IC50 (A549) [µM]	melting point [°C]	IC50 (OVCAR-3) [µM]	IC50 (HCT-116) [µM]	IC50 (PARP-2) [µM]	IC50 (PARP-1) [µM]	SI HTB-125 (HTB-125)	SI IOSE80 (IOSE80)	SI HIEC (HIEC)	induction of apoptosis in A549 cells (A549 cells)	SI HPAEpiC (HPAEpiC)	expression of Caspase 3 [1]	ratio of Cleaved-Caspase 3/Caspase 3 [1]	biosynthesis of PAR (PAR)
COc1ccc(-n2cc(CN3CCC(O)c4ccccc4C34CCCCC4)nn2)cc1 (stereo not drawn) [Compound 11 m, 2-((1-(4-methoxyphenyl)-1 H-1,2,3-triazol-4-yl)methyl)-2,3,4,5-tetrahydrospiro[benzo[c]azepine-1,1’-cyclohexan]-5-ol]	9.33 ± 1.33	8.7 ± 4.1	170.2 to 172.3	6 ± 1.83	5.87 ± 0.54	–	–	–	–	–	–	–	–	–	–
OC1CCN(Cc2cn(-c3ccccc3F)nn2)C2(CCCCC2)c2ccccc21 (stereo not drawn) [Compound 11b, 2-((1-(2-fluorophenyl)-1 H-1,2,3-triazol-4-yl)methyl)-2,3,4,5-tetrahydrospiro[benzo[c]azepine-1,1’-cyclohexan]-5-ol]	9.21 ± 2.54	1.95 ± 0.33	–	4.02 ± 0.24	7.45 ± 1.98	0.0326 ± 0.00197	0.0192 ± 0.00163	7.06 ± 1.32	10.57 ± 2.01	6.12 ± 1.76	induce apoptosis in a dose-dependent manner	15.38 and 15.38 ± 0.97	decreased with the increase of compound 11b concentration	best at 4.0 µM	reduce the biosynthesis of PAR
OC1CCN(Cc2cn(-c3ccc(F)cc3)nn2)C2(CCCCC2)c2ccccc21 (stereo not drawn) [Compound 11d, 2-((1-(4-fluorophenyl)-1 H-1,2,3-triazol-4-yl)methyl)-2,3,4,5-tetrahydrospiro[benzo[c]azepine-1,1’-cyclohexan]-5-ol]	16.2 ± 3.88	4.88 ± 1.18	166.2 to 166.8	17.1 ± 1.5	8.76 ± 3.11	–	–	–	–	–	–	–	–	–	–
Cc1ccccc1-n1cc(CN2CCC(O)c3ccccc3C23CCCCC3)nn1 (stereo not drawn) [Compound 11e, 2-((1-(o-tolyl)-1 H-1,2,3-triazol-4-yl)methyl)-2,3,4,5-tetrahydrospiro[benzo[c]azepine-1,1’-cyclohexan]-5-ol]	9.33 ± 4.08	15.6 ± 2.8	165.2 to 166	7.95 ± 3.35	9.22 ± 4.57	–	–	–	–	–	–	–	–	–	–
Cc1cccc(-n2cc(CN3CCC(O)c4ccccc4C34CCCCC4)nn2)c1 (stereo not drawn) [Compound 11f, 2-((1-(m-tolyl)-1 H-1,2,3-triazol-4-yl)methyl)-2,3,4,5-tetrahydrospiro[benzo[c]azepine-1,1’-cyclohexan]-5-ol]	8.94 ± 3.17	11.8 ± 1.07	167.3 to 168.2	21.7 ± 8.94	12.2 ± 2.01	–	–	–	–	–	–	–	–	–	–
OC1CCN(Cc2cn(-c3cccc(Cl)c3)nn2)C2(CCCCC2)c2ccccc21 (stereo not drawn) [Compound 11i, 2-((1-(3-chlorophenyl)-1 H-1,2,3-triazol-4-yl)methyl)-2,3,4,5-tetrahydrospiro[benzo[c]azepine-1,1’-cyclohexan]-5-ol]	6.34 ± 3.17	13.6 ± 2.47	168.1 to 168.8	4.28 ± 0.77	10.8 ± 2.95	–	–	–	–	–	–	–	–	–	–
OC1CCN(Cc2cn(-c3ccc(Cl)cc3)nn2)C2(CCCCC2)c2ccccc21 (stereo not drawn) [Compound 11j, 2-((1-(4-chlorophenyl)-1 H-1,2,3-triazol-4-yl)methyl)-2,3,4,5-tetrahydrospiro[benzo[c]azepine-1,1’-cyclohexan]-5-ol]	5.27 ± 0.92	18.8 ± 2.67	165.6 to 166.3	5.79 ± 1.25	17.9 ± 1.95	–	–	–	–	–	–	–	–	–	–
OC1CCN(Cc2cn(-c3ccccc3Br)nn2)C2(CCCCC2)c2ccccc21 (stereo not drawn) [Compound 11n, 2-((1-(2-bromophenyl)-1 H-1,2,3-triazol-4-yl)methyl)-2,3,4,5-tetrahydrospiro[benzo[c]azepine-1,1’-cyclohexan]-5-ol]	10.6 ± 0.85	17.9 ± 3.94	168.2 to 169.8	12.6 ± 1.55	15.7 ± 1.98	–	–	–	–	–	–	–	–	–	–
OC1CCN(Cc2cn(-c3cccc(Br)c3)nn2)C2(CCCCC2)c2ccccc21 (stereo not drawn) [Compound 11o, 2-((1-(3-bromophenyl)-1 H-1,2,3-triazol-4-yl)methyl)-2,3,4,5-tetrahydrospiro[benzo[c]azepine-1,1’-cyclohexan]-5-ol]	7.99 ± 2.53	7.4 ± 1.75	169.3 to 170.2	4.2 ± 0.48	10.8 ± 2.11	–	–	–	–	–	–	–	–	–	–
Oc1ccccc1-n1cc(CN2CCC(O)c3ccccc3C23CCCCC3)nn1 (stereo not drawn) [Compound 11q, 2-((1-(2-hydroxyphenyl)-1 H-1,2,3-triazol-4-yl)methyl)-2,3,4,5-tetrahydrospiro[benzo[c]azepine-1,1’-cyclohexan]-5-ol]	8.72 ± 0.71	10.6 ± 1.2	156.8 to 157.2	13.2 ± 4.09	> 50	–	–	–	–	–	–	–	–	–	–
Oc1cccc(-n2cc(CN3CCC(O)c4ccccc4C34CCCCC4)nn2)c1 (stereo not drawn) [Compound 11r, 2-((1-(3-hydroxyphenyl)-1 H-1,2,3-triazol-4-yl)methyl)-2,3,4,5-tetrahydrospiro[benzo[c]azepine-1,1’-cyclohexan]-5-ol]	> 50	11.9 ± 5.74	157.4 to 158.6	3.9 ± 0.26	12.1 ± 0.98	–	–	–	–	–	–	–	–	–	–
Oc1ccc(-n2cc(CN3CCC(O)c4ccccc4C34CCCCC4)nn2)cc1 (stereo not drawn) [Compound 11s, 2-((1-(4-hydroxyphenyl)-1 H-1,2,3-triazol-4-yl)methyl)-2,3,4,5-tetrahydrospiro[benzo[c]azepine-1,1’-cyclohexan]-5-ol]	> 50	> 50	171.1 to 172.3	> 50	> 50	–	–	–	–	–	–	–	–	–	–
